Reference: PubChem BioAssay AID330 (DTP/NCI, 2004)
Where “and” joins values, the source holds several entries; their conditions need not be identical. Equal entries are not always repeated. Toxic doses and inconclusive results are not listed. How the source made its calls: active means survival T/C of 150% or more; inactive means T/C below 125% in these data.

Tested on: P388 leukemia ip, CD2F1 mice, survival T/C
Assay: NCI In Vivo Anticancer Drug Screen. Data for tumor model P388 Leukemia (intraperitoneal) in CD2F1 (CDF1) mice
Settings: endpoint: median survival time, higher = longer survival
How it was run: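 Mice carrying the transplanted tumor received test compound or vehicle. Survival was recorded in each group, and the value is the treated-group measurement divided by that of the vehicle-treated control group.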

[1] = dose: 50.0 mg/kg/injection, schedule: Q01DX009 (ip), vehicle: saline
[2] = dose: 100.0 mg/kg/injection, schedule: Q01DX009 (ip), vehicle: saline
[3] = dose: 200.0 mg/kg/injection, schedule: Q01DX009 (ip), vehicle: saline
[4] = dose: 50.0 mg/kg/injection, schedule: Q01DX005 (ip), vehicle: saline with Tween-80
[5] = dose: 100.0 mg/kg/injection, schedule: Q01DX005 (ip), vehicle: saline with Tween-80
[6] = dose: 200.0 mg/kg/injection, schedule: Q01DX005 (ip), vehicle: saline with Tween-80
[7] = dose: 100.0 mg/kg/injection, schedule: Q04DX003 (ip), vehicle: saline with Tween-80
[8] = dose: 200.0 mg/kg/injection, schedule: Q04DX003 (ip), vehicle: saline with Tween-80
[9] = dose: 400.0 mg/kg/injection, schedule: Q04DX003 (ip), vehicle: saline with Tween-80
[10] = dose: 25.0 mg/kg/injection, schedule: Q01DX009 (ip), vehicle: saline
[11] = dose: 50.0 mg/kg/injection, schedule: Q01DX009 (ip), vehicle: saline with Tween-80
[12] = dose: 200.0 mg/kg/injection, schedule: Q01DX009 (ip), vehicle: saline with Tween-80
[13] = dose: 60.0 mg/kg/injection, schedule: Q01DX005 (ip), vehicle: saline with Tween-80
[14] = dose: 120.0 mg/kg/injection, schedule: Q01DX005 (ip), vehicle: saline with Tween-80
[15] = dose: 240.0 mg/kg/injection, schedule: Q01DX005 (ip), vehicle: saline with Tween-80

Measured: T/C

O=C1O[C@@H]2C3COC(O)[C@](O)(O3)[C@@H]2/C1=C\c1ccc(O)cc1 (stereo not given in full)
inactive: dose: 4.0 mg/kg/injection, schedule: Q01DX005 (ip), vehicle: DMSO 115 % of control | dose: 8.0 mg/kg/injection, schedule: Q01DX005 (ip), vehicle: DMSO 109 % of control | dose: 16.0 mg/kg/injection, schedule: Q01DX005 (ip), vehicle: DMSO 113 % of control | dose: 32.0 mg/kg/injection, schedule: Q01DX005 (ip), vehicle: DMSO 113 % of control

Cc1cc(Cl)cnc1N
inactive: [1] 99 % of control | [2] 97 % of control | [3] 92 % of control

COc1ccc(C2COc3cc4occc4cc3C2=O)c(OC)c1OC (stereo not given)
inactive: dose: 11.25 mg/kg/injection, schedule: Q01DX005 (ip), vehicle: Klucel (hydroxypropylcellulose) (HPC) 99 % of control | dose: 22.5 mg/kg/injection, schedule: Q01DX005 (ip), vehicle: Klucel (hydroxypropylcellulose) (HPC) 97 % of control | dose: 45.0 mg/kg/injection, schedule: Q01DX005 (ip), vehicle: Klucel (hydroxypropylcellulose) (HPC) 95 % of control | dose: 90.0 mg/kg/injection, schedule: Q01DX005 (ip), vehicle: Klucel (hydroxypropylcellulose) (HPC) 97 % of control | dose: 180.0 mg/kg/injection, schedule: Q01DX005 (ip), vehicle: Klucel (hydroxypropylcellulose) (HPC) 99 % of control

O=C(O)C(Nc1ccc2ccccc2c1)C(=O)O
inactive: [4] 94 % of control | [5] 103 % of control | [6] 94 % of control

CS(=O)(=O)NCCNS(C)(=O)=O
inactive: [7] 106 % of control | [8] 103 % of control | [9] 103 % of control

CCCCC(CC)COC(C)=O (stereo not given)
inactive: [7] 104 % of control | [8] 109 % of control | [9] 86 % of control

CC1C(c2ccccc2)N(C)C(c2ccccc2)C(C)C1(O)c1ccccc1 (stereo not given)
inactive: [4] 97 % of control | [5] 94 % of control | [6] 94 % of control

Cc1cc2n(n1)C(C)(C)C(=O)Nc1ccc(Cl)cc1-2
inactive: dose: 60.0 mg/kg/injection, schedule: Q01DX005 (ip), vehicle: Klucel (hydroxypropylcellulose) (HPC) 96 % of control | dose: 120.0 mg/kg/injection, schedule: Q01DX005 (ip), vehicle: Klucel (hydroxypropylcellulose) (HPC) 96 % of control | dose: 240.0 mg/kg/injection, schedule: Q01DX005 (ip), vehicle: Klucel (hydroxypropylcellulose) (HPC) 93 % of control

CCCCCCCCCCCCCCCCN1C(=O)/C(=C\c2ccc(O)cc2)SC1=Nc1ccccc1
inactive: dose: 12.5 mg/kg/injection, schedule: Q01DX009 (ip), vehicle: saline 90 % of control | [10] 88 % of control | [11] 95 % of control | [1] 91 % of control | [12] 92 % of control

Cc1ccc(-c2nnc(N)o2)cc1
inactive: [13] 100 % of control | [14] 100 % of control | [15] 99 % of control

COC(=O)C(=Cc1ccc(OC)cc1)C(=O)OC
inactive: [1] 95 % of control | [2] 95 % of control | [3] 92 % of control

COC(=O)c1cc(-c2ccc(Cl)c(Cl)c2)[nH]c(=O)c1C#N
inactive: [13] 100 % of control | [14] 103 % of control | [15] 94 % of control

O=C(NCc1ccccc1)c1ccc([N+](=O)[O-])cc1
inactive: [11] 87 % of control | dose: 100.0 mg/kg/injection, schedule: Q01DX009 (ip), vehicle: saline with Tween-80 95 % of control | [12] 95 % of control | dose: 400.0 mg/kg/injection, schedule: Q01DX009 (ip), vehicle: saline with Tween-80 91 % of control

O=C(O)CBr
inactive: dose: 25.0 mg/kg/injection, schedule: Q01DX005 (ip), vehicle: other 110 % of control

OCCn1nc2c(c1-c1ccccn1)CCCc1ccccc1-2
inactive: dose: 100.0 mg/kg/injection, schedule: Q04DX002 (ip), vehicle: gum acacia 104 % of control | dose: 200.0 mg/kg/injection, schedule: Q04DX002 (ip), vehicle: gum acacia 97 % of control | dose: 400.0 mg/kg/injection, schedule: Q04DX002 (ip), vehicle: gum acacia 92 % of control

CC(N)(CSCc1ccccc1)C(=O)O (stereo not given)
inactive: dose: 25.0 mg/kg/injection, schedule: Q01DX009 (ip), vehicle: Klucel (hydroxypropylcellulose) (HPC) 100 % of control | dose: 50.0 mg/kg/injection, schedule: Q01DX009 (ip), vehicle: Klucel (hydroxypropylcellulose) (HPC) 103 % of control | dose: 100.0 mg/kg/injection, schedule: Q01DX009 (ip), vehicle: Klucel (hydroxypropylcellulose) (HPC) 107 % of control

O=C(Nc1cccnc1)c1ccc(CSc2ccc(Cl)cc2)o1
inactive: dose: 50.0 mg/kg/injection, schedule: Q01DX005 (ip), vehicle: Klucel (hydroxypropylcellulose) (HPC) 104 % of control | dose: 100.0 mg/kg/injection, schedule: Q01DX005 (ip), vehicle: Klucel (hydroxypropylcellulose) (HPC) 102 % of control | dose: 200.0 mg/kg/injection, schedule: Q01DX005 (ip), vehicle: Klucel (hydroxypropylcellulose) (HPC) 111 % of control

COc1c(OC2OC(CO)C(O)C(O)C2O)cc2occ(-c3ccc4c(c3)OCO4)c(=O)c2c1O (stereo not given)
inactive: dose: 4.0 mg/kg/injection, schedule: Q01DX005 (ip), vehicle: saline with Tween-80 94 % of control | dose: 8.0 mg/kg/injection, schedule: Q01DX005 (ip), vehicle: saline with Tween-80 101 % of control | dose: 16.0 mg/kg/injection, schedule: Q01DX005 (ip), vehicle: saline with Tween-80 101 % of control | dose: 32.0 mg/kg/injection, schedule: Q01DX005 (ip), vehicle: saline with Tween-80 95 % of control

O=C(NCCCl)Oc1cccn(C(=O)NCCCl)c1=O
inactive: dose: 12.5 mg/kg/injection, schedule: Q01DX009 (sc), vehicle: saline with Tween-80 106 % of control and 111 % of control | [10] 111 % of control and 113 % of control | dose: 25.0 mg/kg/injection, schedule: Q01DX009 (sc), vehicle: saline with Tween-80 100 % of control and 115 % of control | [1] 112 % of control and 118 % of control | dose: 50.0 mg/kg/injection, schedule: Q01DX009 (sc), vehicle: saline with Tween-80 102 % of control and 115 % of control | dose: 100.0 mg/kg/injection, schedule: Q01DX009 (sc), vehicle: saline with Tween-80 109 % of control and 115 % of control | dose: 200.0 mg/kg/injection, schedule: Q01DX009 (sc), vehicle: saline with Tween-80 111 % of control and 123 % of control | dose: 400.0 mg/kg/injection, schedule: Q01DX009 (sc), vehicle: saline with Tween-80 95 % of control

CC(C)CC(=O)CC(c1ccccc1)C(C(=O)/C=C/c1ccccc1)C(C)C (stereo not given)
inactive: dose: 12.5 mg/kg/injection, schedule: Q01DX005 (ip), vehicle: saline with Tween-80 94 % of control | dose: 25.0 mg/kg/injection, schedule: Q01DX005 (ip), vehicle: saline with Tween-80 94 % of control | [4] 87 % of control and 92 % of control

COc1cccc2c1C(=O)c1c(O)c(CCl)cc(OC)c1C2=O
inactive: dose: 7.5 mg/kg/injection, schedule: Q01DX005 (ip), vehicle: saline with Tween-80 108 % of control | dose: 15.0 mg/kg/injection, schedule: Q01DX005 (ip), vehicle: saline with Tween-80 117 % of control | dose: 30.0 mg/kg/injection, schedule: Q01DX005 (ip), vehicle: saline with Tween-80 114 % of control | [13] 101 % of control

COc1ccc2c(c1)c(-c1cc3ccccc3oc1=O)cn2C(=O)c1ccc(Cl)cc1
inactive: [13] 105 % of control | [14] 102 % of control | [15] 106 % of control

COc1nc(=O)n(C2CCCO2)cc1Br (stereo not given)
inactive: [13] 96 % of control | [14] 102 % of control | [15] 100 % of control

O=C1C2C3CC(c4ccccc43)C2N1S(=O)(=O)Cl (stereo not given)
inactive: [13] 107 % of control | [14] 106 % of control | [15] 114 % of control

Cc1cc(C)nc(NS(=O)(=O)c2ccc(N=c3c4ccccc4n(C)c4ccccc34)cc2)n1
inactive: [4] 90 % of control | [5] 97 % of control | [6] 90 % of control

O=C(CC1(O)C(=O)Nc2ccccc21)c1cccc2ccccc12 (stereo not given)
inactive: [13] 110 % of control | [14] 113 % of control | [15] 103 % of control

CCOC(=O)NC1CCC2(C)CCCCC2C1 (stereo not given)
inactive: [1] 100 % of control | [2] 97 % of control | [3] 109 % of control

CN(C)C1C(=O)C(C(=O)NCNC(CO)(CO)CO)=C(O)C2(O)C(=O)C3=C(O)c4c(O)cccc4C(C)(O)C3CC12 (stereo not given)
inactive: dose: 50.0 mg/kg/injection, schedule: Q01DX005 (ip), vehicle: saline 92 % of control | dose: 100.0 mg/kg/injection, schedule: Q01DX005 (ip), vehicle: saline 101 % of control | dose: 200.0 mg/kg/injection, schedule: Q01DX005 (ip), vehicle: saline 100 % of control
